Laboratory results published in US7087595B2, “Antihistaminic spiro compounds” (Janssen Pharmaceutica, N.V., priority 1998, dated 2006).
Where a name gives a salt, the structure may show the parent alone.

test system: Compound 48/80 induced Lethality; test: Protection of Rats from Compound 48/80 induced Lethality; type: in vivo; settings: Rattus norvegicus, protection from Compound 48/80 induced lethality, read-out: ED50

| Molecule | ED50 |
| --- | --- |
| CCOC(=O)C(CN1CCC2(CC1)c1ccccc1CCn1c(C(N)=O)cnc12)c1ccccc1 (stereo not drawn) [Compound 64, ethyl 3-(aminocarbonyl)-6,11-dihydro-α-phenylspiro[5H-imidazo-[2,1-b][3]benzazepine-11,4′-piperidine]-1′-propanoate monohydrochloride] | 0.31 mg/kg |
| C1=Cn2ccnc2C2(CCNCC2)c2ccsc21 [Compound 56a, spiro[10H-imidazo[1,2-a]thieno[3,2-d]azepine-10,4′-piperidine]] | 2.5 mg/kg |
| Cl.Cl.NC(=O)c1cnc2n1CCc1ccccc1C21CCNCC1 [Compound 17, 5,6-dihydrospiro[11H-imidazo[2,1-b][3]-benzazepine-11,4′-piperidine]-3-carboxamide dihydrochloride] | 0.04 mg/kg |
| Cl.Cl.NC(=O)c1nc2n(c1C(N)=O)CCc1ccccc1C21CCNCC1.O [Compound 53, 6,11-dihydrospiro[5H-imidazo[2,1-b][3]benzazepine-11,4′-piperidine]-2,3-dicarboxamide dihydrochloride monohydrate] | 0.31 mg/kg |
| CN1CCC2(CC1)c1ccccc1CCn1c(C(N)=O)cnc12.O [Compound 80, 6,11-dihydro-1′-methylspiro[5H-imidazo[2,1-b][3]benzazepine-11,4′-piperidine]-3-carboxamide monohydrate] | 0.63 mg/kg |
| Clc1cnc2n1CCc1ccccc1C21CCNCC1.O=C(O)/C=C/C(=O)O [Compound 20, 3-chloro-6,11-dihydrospiro[5H-imidazo[2,1-b][3]benzazepine-11,4′-piperidine] (E)-2-butenedioate (1:1)] | 0.31 mg/kg |

same assay, conditions: protection from Compound 48/80 induced lethality

| Molecule | ED50 |
| --- | --- |
| NC(=O)c1cnc2n1CCc1ccccc1C21CCN(CCO)CC1 [Compound 62, 6,11-dihydro-1′-(2-hydroxyetehyl)spiro[5H-imidazo[2,1-b][3]-benzazepine-11,4′-piperidine]-3-carboxamide] | 0.63 mg/kg |
| CN1CCC2(CC1)c1ccccc1CCn1ccnc12.O=S(=O)(O)NC1CCCCC1.O=S(=O)(O)NC1CCCCC1 [Compound 1, 6,11-dihydro-1′-methylspiro[5H-imidazo[2,1-b][3]benzazepine-11,4′-piperidine]cyclohexylsulfamate(1:2)] | 2.5 mg/kg |
| CCCCN1CCC2(CC1)c1ccccc1CCn1ccnc12.CCCCN1CCC2(CC1)c1ccccc1CCn1ccnc12.Cl.Cl.Cl.Cl.O [Compound 3, 1′-butyl-5,6-dihydrospiro[imidazo[2,1-b][3]-benzazepine-11-[11H],4′-piperidine]dihydrochloride.hemihydrate] | 2.5 mg/kg |
| COCc1cnc2n1CCc1ccccc1C21CCNCC1.O=C(O)/C=C/C(=O)O [Compound 58, 6,11-dihydro-3-(methoxymethyl)spiro[5H-imidazo[2,1-b][3]benzazepine-11,4′-piperidine]. (E)-2-butenedioate (1:1)] | 2.5 mg/kg |
| 3-(aminocarbonyl)-6,11-dihydrospiro[5H-imidazo[2,1-b][3]-benzazepine-11,4′-piperidine]-1′-carboxylate [Compound 79] | 0.04 mg/kg |
| 5,6-dihydrospiro[11H-imidazo[2,1-b][3]benzazepine-11,4′-piperidine]-3-methanol (E)-2-butenedioic acid salt (2:1) [Compound 18a] | 0.08 mg/kg |
